Patent US20170319562A1, “Compositions and Methods for Extended Therapy with Aminopyridines” (Acorda Therapeutics, Inc., priority 2009, published 2017)
Like-named read-outs stand apart in the source and are kept apart here.

What was measured:
[1] = human, in vivo, po, 10 mg
[2] = cited from earlier work; for bioavailability: AUC(0-∞) i.v. vs p.o. 2 mg/kg
[3] = tested on: patients with multiple sclerosis; assay: Pooled analysis of MS-F202, MS-F203 and MS-F204; type: in vivo, human; conditions: Timed-Walk Responders
Description: The primary efficacy variable was analyzed by comparing 4-aminopyridine-SR 10 mg b.i.d., the now FDA-approved clinical dose, to placebo with respect to the proportion of patients with consistent improvements in walking speed (Timed-Walk Responders).
A set of post-hoc analyses using a traditional definition of response based on threshold change was performed to provide additional evidence of the robustness of the primary analyses using the Timed-Walk Responder criterion. For these analyses, a patient was defined as a “% Responder” at various thresholds of response (at average increases in walking speed during the treatment period of at least 10%, 20%, etc. up to 60% from baseline). Fisher's Exact test was used to compare 4-aminopyridine to placebo for each study and for the pooled analysis.
DesignAVIethods: All patients from MS-F202, MS-F203 and MS-F204 were included in a pooled analysis. Patients with clinically definite multiple sclerosis were randomized to 4-aminopyridine-SR 10 mg bid or placebo for up to 14 weeks. The primary efficacy variable was defined as a faster walking speed on the Timed 25-Foot Walk (T25FW) for at least 3 of 4 double-blind efficacy visits compared with the maximum walking speed on any of 5 off-treatment visits, and was determined prospectively for MS-F203 and MS-F204 and retrospectively in MS-F202. The average Walking Speed (“WS”) over four baseline and four treatment visits were compared by treatment and TWR status.
All patients from MS-F202, MS-F203 and MS-F204 were included in a pooled analysis. Patients with clinically definite multiple sclerosis were randomized to 4-aminopyridine-SR 10 mg bid or placebo for up to 14 weeks. The primary efficacy variable was defined as a faster walking speed on the Timed 25-Foot Walk (T25FW) for at least 3 of 4 double-blind efficacy visits compared with the maximum walking speed on any of 5 off-treatment visits, and was determined prospectively for MS-F203 and MS-F204 and retrospectively in MS-F202.
Methods: Data for patients who received the therapeutic dose of 4-aminopyridine-SR, 10mg bid, in three randomized controlled trials (MS-F202, MS-F203, and MS-F204) were pooled (n=394) and compared to placebo (n=237). Comparative analyses were based on the percent change from baseline in WS using the timed 25-foot walk. […] The percent change in WS for the pooled populations for each double-blind visit was evaluated by time interval to account for differences in study schedules (Days 1-21, 22-49, 50-77, and 78-end of double-blind phase). The percent changes were analyzed with analysis of variance with effects for treatment group, study, and site within study.

Nc1ccncc1 [4-aminopyridine]
time of Cmax after dose administration [1]: approximately 1.1 hours
bioavailability ([2]; female rats): ~55%
bioavailability ([2]; male rats): approximately 66.5%
peak plasma concentrations lower in females than in males ([2]; oral administration): 38%
double-blind average percent change from baseline in walking speed ([3]; average improvement): 24%
average increase in walking speed by time from last dose ([3]; dose interval 9-10 hrs): 25%
average increase in walking speed by time from last dose ([3]; dose interval 10-11 hrs): 24%
average increase in walking speed by time from last dose ([3]; dose interval 11-12 hrs): 20%
